Data from ChEMBL document CHEMBL5137058, “Therapeutic Strategies to Target the Androgen Receptor” (J Med Chem, 2022).

Columns and labels:
[1] = In vivo agonist activity at Androgen receptor in rat assessed as increase in levator ani muscle weight administered orally for 14 days; type: functional; conditions: 336 h, route po, time 14 day
[2] = Half-life in plasma of rat; type: ADME
Androgen receptor [3] = biological target: T1, Androgen receptor (Homo sapiens, UniProt P10275); assay: Antagonist activity at Androgen receptor in human LNCaP cells assessed as inhibition of Binding Function 3 (BF3) of AR measured by enhanced green fluorescent protein transcriptional (eGFPT) assay; type: cell-based
T1 sequence (P10275 whole entry): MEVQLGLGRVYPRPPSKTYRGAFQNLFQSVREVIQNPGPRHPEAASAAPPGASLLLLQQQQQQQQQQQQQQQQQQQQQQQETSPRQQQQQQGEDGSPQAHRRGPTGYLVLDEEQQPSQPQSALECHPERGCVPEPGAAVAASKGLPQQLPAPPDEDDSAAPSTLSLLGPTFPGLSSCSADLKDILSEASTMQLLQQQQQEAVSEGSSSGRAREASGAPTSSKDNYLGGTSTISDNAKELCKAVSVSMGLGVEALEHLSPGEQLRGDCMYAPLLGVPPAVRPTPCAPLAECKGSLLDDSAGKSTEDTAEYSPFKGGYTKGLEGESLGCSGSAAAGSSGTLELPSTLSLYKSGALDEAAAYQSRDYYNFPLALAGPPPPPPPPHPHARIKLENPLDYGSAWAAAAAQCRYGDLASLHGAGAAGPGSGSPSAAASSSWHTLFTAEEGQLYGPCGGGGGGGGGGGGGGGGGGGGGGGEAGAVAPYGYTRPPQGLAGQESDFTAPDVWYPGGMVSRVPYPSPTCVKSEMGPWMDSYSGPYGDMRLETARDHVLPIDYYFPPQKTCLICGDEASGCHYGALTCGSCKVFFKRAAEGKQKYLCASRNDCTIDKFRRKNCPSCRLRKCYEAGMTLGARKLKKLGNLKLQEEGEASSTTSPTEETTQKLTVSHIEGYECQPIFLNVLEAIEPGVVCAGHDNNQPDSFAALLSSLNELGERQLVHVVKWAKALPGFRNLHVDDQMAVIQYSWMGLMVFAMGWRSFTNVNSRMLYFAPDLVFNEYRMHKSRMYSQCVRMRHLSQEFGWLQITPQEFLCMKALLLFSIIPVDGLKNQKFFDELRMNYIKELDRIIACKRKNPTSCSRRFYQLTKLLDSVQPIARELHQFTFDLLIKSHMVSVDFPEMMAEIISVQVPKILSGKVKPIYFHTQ

[4] = Antitumor activity against bicalutamide-resistant human LNCaP-cxD2 cells xenografted in mouse at 40 mg/kg, po administered for 28 days; type: functional; conditions: time 28 day
Androgen receptor [5] = biological target: T1, Androgen receptor; assay: Binding affinity to wild-type Androgen receptor (unknown origin)
Androgen receptor [6] = biological target: T2, Androgen receptor (Homo sapiens, UniProt P10275, T878A); assay: Binding affinity to bicalutamide-resistant Androgen receptor T877A mutant (unknown origin)
Androgen receptor [7] = biological target: T1, Androgen receptor; assay: Antagonist activity at wild-type Androgen receptor (unknown origin) expressed in African green monkey COS-7 cells measured as gene transcription level; type: cell-based
Androgen receptor [8] = biological target: T2, Androgen receptor; assay: Antagonist activity at Androgen receptor T877A mutant (unknown origin) expressed in African green monkey COS-7 cells measured as gene transcription level; type: cell-based
[9] = Antitumor activity against bicalutamide-resistant human LNCaP-cxD2 cells xenografted in mouse at 25 mg/kg, po administered for 28 days; type: functional; conditions: time 28 day
Androgen receptor [10] = biological target: T1, Androgen receptor; assay: Agonist activity at Androgen receptor in human 22Rv1 cells cotransfected with pARE-LUC measured by luciferase assay; type: cell-based
[11] = Antitumor activity against bicalutamide-resistant human LNCaP-cxD2 cells xenografted in mouse at 50 mg/kg, po administered for 28 days; type: functional; conditions: time 28 day
Androgen receptor [12] = biological target: T1, Androgen receptor; assay: Displacement of [3H]DHT from Androgen receptor expressed in human MDA-MB-453 cells; type: cell-based
Androgen receptor [13] = biological target: T1, Androgen receptor; assay: Antagonist activity at Androgen receptor in human MDA-MB-453 cells measured by SEAP reporter gene assay; type: cell-based
Androgen receptor [14] = biological target: T1, Androgen receptor; assay: Antagonist activity at Androgen receptor in human LNCaP cells measured by SEAP reporter gene assay; type: cell-based
Rattus norvegicus [15] = assay: Antagonist activity in mature male Sprague-Dawley rat assessed as decrease in seminal vesicle and prostate weight at 1 mg/kg, po administered once a day for 14 days; type: functional; parameters: scale not given: the % may be the effect or the level left; conditions: time 14 day
Rattus norvegicus [16] = assay: Antagonist activity in mature male Sprague-Dawley rat assessed as decrease in seminal vesicle and prostate weight at 10 mg/kg, po administered once a day for 14 days; type: functional; parameters: scale not given: the % may be the effect or the level left; conditions: time 14 day
VCaP = assay: Antiproliferative activity against human VCaP cells; type: functional, cell-based
[17] = Oral bioavailability in mouse; type: ADME, organism-based; conditions: in vivo
LNCaP [18] = assay: Antitumor activity against human LNCaP cells expressing Androgen receptor F877L mutant xenografted in mouse assessed as tumor growth inhibition at 30 mg/kg, po administered daily; type: functional; conditions: read-out: TGI
[19] = biological target: T3, Androgen receptor (Homo sapiens) (UniProt P10275); assay: Antagonist activity at Androgen receptor (unknown origin) at 10 uM relative to control; parameters: scale not given: the % may be the effect or the level left; conditions: filed as antagonist
T3 sequence (whole entry): T1 sequence (P10275 whole entry)

[20] = biological target: T3, Androgen receptor (Homo sapiens); assay: Agonist activity at Androgen receptor (unknown origin) in presence of DHT
LNCaP [21] = assay: Antiproliferative activity against human LNCaP cells after 5 days by MTS assay; type: functional; conditions: time 5 day
HEK-293T = assay: Antiproliferative activity against NTD-over expressed human HEK293T cells after 5 days by MTS assay; type: functional, cell-based; conditions: 120 h
LNCaP C4-2 = assay: Antiproliferative activity against AR-independent human LNCaP C4-2 cells after 5 days by MTS assay; type: functional, cell-based; conditions: LNCaP C4-2, 120 h
[22] = Antiproliferative activity against AR-independent human CWR22Rv cells after 5 days by MTS assay; type: functional, cell-based; conditions: 120 h
[23] = Antitumor activity against human CWR22Rv cells xenografted in mouse at 10 mg/kg, ip administered for 21 days; type: functional; conditions: time 21 day
[24] = In vivo agonist activity at Androgen receptor in castrated rat assessed as increase in levator ani muscle weight at 0.11 mg administered orally per day for 14 days; type: functional; conditions: route po, time 14 day
[25] = In vivo agonist activity at Androgen receptor in castrated male rat assessed as increase in prostate weight at 0.76 mg administered orally per day; type: functional; conditions: route po
Androgen receptor [26] = biological target: T1, Androgen receptor; assay: Agonist activity at human Androgen receptor expressed in African green monkey CV-1 cells measured by ARE-luciferase assay; type: cell-based
Androgen receptor [27] = biological target: T1, Androgen receptor; assay: Activation of human Androgen receptor N/C (N-terminal/C-terminal) interaction
Androgen receptor [28] = biological target: T1, Androgen receptor; type: cell-based, LNCaP C4-2
Description: Antagonist activity at Androgen receptor in human LNCaP C4-2 cells transfected with PSA6.1-luc and pRL-TK measured by luciferase gene reporter assay

[29] = Inhibition of human LNCaP cell growth at 10 uM measured after 24 hrs by AlamarBlue staining method; type: functional
[30] = biological target: T3, Androgen receptor (Homo sapiens); assay: Antagonist activity at Androgen receptor in human LNCaP cells assessed as inhibition of PSA expression at 10 uM measured by ELISA assay; type: cell-based; parameters: scale not given: the % may be the effect or the level left
Androgen receptor [31] = biological target: T2, Androgen receptor; assay: Binding affinity to bicalutamide-resistant Androgen receptor T878A mutant (unknown origin)
LNCaP [32] = assay: Antiproliferative activity against human LNCaP cells expressing wild-type Androgen receptor; type: functional, cell-based
LNCaP [33] = assay: Antiproliferative activity against human LNCaP cells expressing Androgen receptor T878A mutant; type: functional, cell-based
[34] = In vivo agonist activity at Androgen receptor in male rat assessed as increase in levator ani muscle weight at 0.1 mg/kg, po administered for 14 days; type: functional; conditions: time 14 day
[35] = In vivo agonist activity at Androgen receptor in male rat assessed as increase in prostate weight at 0.1 mg/kg, po administered for 14 days; type: functional; conditions: time 14 day

T2 sequence (P10275 whole entry T878A): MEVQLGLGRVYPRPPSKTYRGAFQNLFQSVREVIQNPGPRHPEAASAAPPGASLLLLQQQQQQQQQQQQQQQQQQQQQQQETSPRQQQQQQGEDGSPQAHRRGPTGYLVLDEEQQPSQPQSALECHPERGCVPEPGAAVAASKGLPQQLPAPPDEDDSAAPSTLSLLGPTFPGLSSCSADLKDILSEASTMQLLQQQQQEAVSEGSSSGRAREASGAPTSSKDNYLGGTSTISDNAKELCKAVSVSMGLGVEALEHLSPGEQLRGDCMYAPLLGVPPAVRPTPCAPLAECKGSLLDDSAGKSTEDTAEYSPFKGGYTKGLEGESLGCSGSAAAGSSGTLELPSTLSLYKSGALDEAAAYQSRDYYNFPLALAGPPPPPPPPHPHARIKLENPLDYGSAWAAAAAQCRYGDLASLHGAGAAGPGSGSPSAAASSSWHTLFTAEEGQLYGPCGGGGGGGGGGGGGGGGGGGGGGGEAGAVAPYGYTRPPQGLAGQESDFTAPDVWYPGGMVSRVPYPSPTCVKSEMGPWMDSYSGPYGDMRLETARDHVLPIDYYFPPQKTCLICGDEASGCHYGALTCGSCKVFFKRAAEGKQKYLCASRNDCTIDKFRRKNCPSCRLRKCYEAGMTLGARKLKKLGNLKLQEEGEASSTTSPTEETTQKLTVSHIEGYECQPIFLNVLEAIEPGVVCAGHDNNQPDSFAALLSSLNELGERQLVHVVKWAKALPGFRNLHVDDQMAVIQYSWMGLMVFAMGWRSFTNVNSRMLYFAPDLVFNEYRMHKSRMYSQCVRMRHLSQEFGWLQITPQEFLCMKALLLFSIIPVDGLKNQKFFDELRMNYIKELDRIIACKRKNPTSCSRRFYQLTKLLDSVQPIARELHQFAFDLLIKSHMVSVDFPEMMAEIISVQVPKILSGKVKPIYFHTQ

Q: Which ED50 [1] does the source give for `CC[C@H]1[C@@H]2[C@@H](O)CCN2C(=O)N1c1ccc(C#N)c(Cl)c1C` here?
A: 0.09 mg/kg

Q: And the half-life [2]?
A: 5.5 h

Q: For `CC(C)C(NC(=O)c1cc2ccc(F)cc2[nH]1)c1ccco1` (stereo unspecified), which IC50 (Androgen receptor [3]) is on record?
A: 430 nM

Q: With `Cc1nn(-c2ccc(C#N)c(Cl)c2)c(C)c1Cc1ccc(C(=O)NCC(C)(C)O)cc1` as the molecule, how does the T/C [4] read?
A: 23%

Q: What does the source list for `Cc1c(C#N)c(-c2ccc(C#N)cc2)c(C)n1-c1cnc(Cl)c(CO)c1`?
A: IC50 (Androgen receptor [5]): 37 nM; IC50 (Androgen receptor [6]): 100 nM; IC50 (Androgen receptor [7]): 25 nM; IC50 (Androgen receptor [8]): 110 nM; T/C [9]: 15%

Q: For `CCCN(CC(F)(F)F)c1cc(Br)c(C#N)s1`, which IC50 (Androgen receptor [10]) is on record?
A: 10 nM

Q: With `Cc1nn(-c2ccc(C#N)c(Cl)c2)c(C)c1Oc1ccc(C(=O)NC(C)(C)C)cn1` as the molecule, how does the IC50 (Androgen receptor [5]) read?
A: 430 nM

Q: And the IC50 (Androgen receptor [7])?
A: 1000 nM

Q: And the T/C [11]?
A: 17%

Q: Which results are given for `CCS(=O)(=O)N[C@@H]1C[C@@]2(C)O[C@]1(C)[C@@H]1C(=O)N(c3ccc(C#N)c(C(F)(F)F)c3)C(=O)[C@@H]12`?
A: Ki (Androgen receptor [12]): 1.7 nM; IC50 (Androgen receptor [13]): 16 nM; IC50 (Androgen receptor [14]): 153 nM; Activity (Rattus norvegicus [15]): 42%; Activity (Rattus norvegicus [16]): 74%

Q: With `N#Cc1ncc(N2C(=O)C3(CCC3)N(c3ccc(OC4CCNCC4)nc3)C2=S)cc1C(F)(F)F` [TRC-253] as the molecule, how does the IC50 (VCaP) read?
A: 290 nM

Q: What about the bioavailability [17] of the same molecule?
A: 45%

Q: What about the inhibition in vivo at 30 mg/kg (LNCaP [18]) of the same molecule?
A: 87%

Q: With `CCOc1ccc2c(c1OC(C)C)CCN(c1ccc(C(=O)Nc3cccc(C)n3)cn1)C2` as the molecule, how does the Activity [19] read?
A: > 95%

Q: And the Activity [20]?
A: < 5%

Q: And the Activity (LNCaP [21])?
A: >90%

Q: And the IC50 (HEK-293T)?
A: 780 nM

Q: And the IC50 (LNCaP C4-2)?
A: 1000 nM

Q: What about the IC50 [22] of the same molecule?
A: 1000 nM

Q: And the T/C [23]?
A: 65%

Q: For `C[C@@]1(C(=O)Nc2ccc(C#N)c(C(F)(F)F)c2)CC(C(F)(F)F)=NN1`, which Activity [24] is on record?
A: 90%

Q: And the Activity [25]?
A: 51%

Q: What does the source list for `N#Cc1ccc(-c2ccc(O)cc2F)[nH]1`?
A: EC50 (Androgen receptor [26]): 0.34 nM; EC50 (Androgen receptor [27]): 1210 nM

Q: For `Cc1ccc(Cl)cc1N1CCN(C(=O)[C@@H]2C[C@@H]2c2ccc(F)cc2)CC1`, which EC50 (Androgen receptor [28]) is on record?
A: 1700 nM

Q: What does the source list for `COc1cc(/C=N/NC(=O)c2cc3c(ccc4ccccc43)o2)cc(OC)c1O`?
A: inhibition at 10 µM [29]: 30%; Activity [30]: 30%

Q: What does the source list for `CNC(=O)c1ccc([C@]2(O)CCN(c3ccc(C#N)c(Cl)c3)[C@H]2C)cn1`?
A: IC50 (Androgen receptor [5]): 830 nM; IC50 (Androgen receptor [31]): 1700 nM; IC50 (LNCaP [32]): 290 nM; IC50 (LNCaP [33]): 1700 nM

Q: For `Cc1c(/N=C2\O[C@@H](C(F)(F)F)[C@@H]3[C@@H](O)CCN23)ccc(C#N)c1Cl`, which Activity [34] is on record?
A: 100%

Q: And the Activity [35]?
A: 100%
